Source: patent US10682388B2, “Targeting of PELP1 in cancer therapy” (THE BOARD OF REGENTS OF THE UNIVERSITY OF TEXAS SYSTEM, priority 2014, dated 2020)
“Also recorded” adds a separate entry of the source.

Experiments:
BG1 cells = experiment: Ovarian cancer cell proliferation; type: cell-based; settings: BG1, FIG. 14
Method: FIG. 14. […] Cell proliferation rates were measured by using MTT Cell Viability Assay in 96-well plates. Model cells were seeded in 96-well plates (1×10^3 cells/well) in DMEM or RPMI medium containing 10% serum. After an overnight incubation, cells were treated with varying concentrations of the peptides for 3-7 days and growth inhibition was determined by using traditional MTT assay (Sigma) following manufacturer's instructions.

[1] = tested on: ERE-luciferase in ZRPELP1 cells; experiment: ERE-luciferase reporter gene assay in PELP1 overexpressing cells; type: cell-based, Human; settings: peptide 24 hours, estradiol 12 hours, compared to control TAT, FIGS. 4B, 10
Method: (§1) FIGS. 4A-E. (FIG. 4A) ZR75vec, ZR75PELP1, MCF7vec and MCF7PELP1 cells were treated in triplicate with TAT, PIP1 or PIP1 deletions (Del1, Del2, Del3) at 10 uM every 3 days and proliferation was measured by MTT assay on day 7. (FIG. 4B) ZRPELP1 cells were transfected with ERE-luciferase and treated with TAT, PIP1, or PIP2 for 24 hours and with estradiol for 12 hours. Relative luciferase activity was measured in triplicate. (FIG. 4C) ZR75 cells were grown in 5% DCC media for 72 hours, treated with TAT or PIP1 every 3 days, and treated with estradiol 10^−7 M for 12 hours. Proliferation was measured in triplicate on day 7 by MTT assay at 595 nm. (FIG. 4D) MCF7-Letrozole resistant cells were grown in 5% DCC media for 72 hours, treated with TAT, PIP1 or PIP2 every 3 days, and letrozole or estradiol 10^−7 M for 12 hours. Proliferation was measured in triplicate on day 7 by MTT assay at 595 nm. (FIG. 4E) MCF7-Tamoxiefn resistant cells were grown in 5% DCC media for 72 hours, treated with TAT, PIP1 or PIP2 every 3 days, and tamoxifen or estradiol 10^−7 M for 12 hours. Proliferation was measured in triplicate on day 7 by MTT assay at 595 nm.
FIG. 10. ERE-luciferase assay. […]
Model cells were seeded in 6-well plates. […] Luciferase activity was measured by using the luciferase assay system (Promega, Madison, Wis.).

[2] = tested on: G9a target genes Pecam1, Serac1, Rb1 and Bmi1 in ZR75 cells; experiment: qRTPCR of G9a target genes; type: cell-based, Human; settings: 10 μM, FIG. 3B
Method: FIGS. 3A-F. (FIG. 3A) Recombinant histones were incubated with G9a with increasing concentrations of PELP1, incubated 1 hour at 30° C. and western blot analysis was performed for expression of H3K9me2. Total histone H3 is shown as the control. (FIG. 3B) qRTPCR analysis of ZR75 and ZRPELP1KD cells treated with 10 μM TAT or PIP1 for 24 hours. G9a target genes PECAM1, SERAC1, RB1 and BMI1 expression is shown as—fold change over actin. (FIG. […]) ChIP-sequencing location analysis of H3K9me2 in control ZR75 model cells. (FIG. 3D) ChIP-sequencing location analysis of H3K9me2 in stable ZR75PELP1KD cells. (FIG. 3E) Ingenuity pathway analysis of genes from binding peaks of ChIP-sequencing of H3K9me2 in stable PELP1 ZR75PELP1KD cells. (FIG. 3F) Image from Integrated Genome Viewer of ChIP-sequencing of H3K9me2 in ZR75 and ZRPELP1KD cells.
Model cells ZR75 and ZRPELP1KD were grown in 8% DCC media for 72 hours and treated with TAT or PIP1 (10 μM) for […]. RNA was isolated by Trizol and cDNA was synthesized by Superscript III First Strand reverse transcriptase (Invitrogen). qPCR was performed in triplicate by SyberGreen using an Illumina Eco Real-Time PCR System. Gene expression was normalized to actin.

[3] = tested on: ZR75PELP1KD and MCF7PEP1KD cells; experiment: MTT proliferation assay in PELP1 knockdown cells; type: cell-based, Human; settings: increasing doses 10, 20, or 50 μM, day 7, FIGS. 8A-B
Method: FIGS. 8A-C. (FIG. 8A) ZR75PELP1KD cells were treated in triplicate with TAT or PIP1 (10, 20, or 50 μM) every 3 days and proliferation was measured by MTT assay on day 7. (FIG. 8B) MCF7PELP1KD cells were treated in triplicate with TAT or PIP1 (10, 20, or 50 μM) every 3 days and proliferation was measured by MTT assay on day 7. (FIG. 8C) MDAMB231 and MDAMB468 cells were treated in triplicate with TAT or PIP1 (10 μM) every 3 days and proliferation was measured by MTT assay on day 7. Cell proliferation rates were measured by using MTT Cell Viability Assay in 96-well plates. Model cells were seeded in 96-well plates (1×10^3 cells/well) in DMEM or RPMI medium containing 10% serum. After an overnight incubation, cells were treated with varying concentrations of the peptides for 3-7 days and growth inhibition was determined by using traditional MTT assay (Sigma) following manufacturer's instructions.

[4] = tested on: MCF7-TamR and MCF7-LTLT cells; experiment: Therapy resistance assays, MTT; type: cell-based, Human; settings: FIGS. 4D-E, 11
Method: as §1
FIG. 11. Cell proliferation assay: letrozole-resistant MCF-7-LTLT cells and Tamoxifen resistant MCF7-Tam cells were treated with TAT, PIP1, or PIP2 (10 μM)+/− letrozole or Tamoxifen.
Tamoxifen (Tam) therapy resistant MCF7-TamR and letrozole resistant MCF7-LTLT cells were cultured in tamoxifen or letrozole (10^-7M) containing media in the presence or absence of peptides and proliferation was measured by MTT assay (Sigma) following manufacturer's instructions.

## GRKKRRQRRRGGMVEFRWSCPGRRKAKA [PIP1]
BG1 cells
  proliferation of ovarian cancer cells: dose-dependent decrease in the proliferation; also recorded: inhibits proliferation of ovarian cancer cells
[1]
  ERE activation (ERE-luciferase): significantly decreased ERE activation
[2]
  expression of G9a target genes Pecam1, Serac1, Rb1 and Bmi1: decrease in the expression G9a upregulated target genes
[3]
  proliferation in PELP1 knockdown cells: only saw an effect at very high concentrations
[4]; MCF7-TamR and MCF7-LTLT, 10 μM
  proliferation of therapy resistant cell lines: inhibited the proliferation; also recorded: efficiently reduce the growth of therapy resistant cells
[4]; therapy resistant cells
  combined effect on proliferation with hormonal therapy (tamoxifen, letrozole): synergistic inhibition of proliferation with tamoxifen
